Common to all, as to test: cell-based
The target in one test is T1, H875Y/T878A-AR (Homo sapiens, UniProt P10275, H875Y/T878A).
T1 sequence (P10275 1-920 H875Y/T878A): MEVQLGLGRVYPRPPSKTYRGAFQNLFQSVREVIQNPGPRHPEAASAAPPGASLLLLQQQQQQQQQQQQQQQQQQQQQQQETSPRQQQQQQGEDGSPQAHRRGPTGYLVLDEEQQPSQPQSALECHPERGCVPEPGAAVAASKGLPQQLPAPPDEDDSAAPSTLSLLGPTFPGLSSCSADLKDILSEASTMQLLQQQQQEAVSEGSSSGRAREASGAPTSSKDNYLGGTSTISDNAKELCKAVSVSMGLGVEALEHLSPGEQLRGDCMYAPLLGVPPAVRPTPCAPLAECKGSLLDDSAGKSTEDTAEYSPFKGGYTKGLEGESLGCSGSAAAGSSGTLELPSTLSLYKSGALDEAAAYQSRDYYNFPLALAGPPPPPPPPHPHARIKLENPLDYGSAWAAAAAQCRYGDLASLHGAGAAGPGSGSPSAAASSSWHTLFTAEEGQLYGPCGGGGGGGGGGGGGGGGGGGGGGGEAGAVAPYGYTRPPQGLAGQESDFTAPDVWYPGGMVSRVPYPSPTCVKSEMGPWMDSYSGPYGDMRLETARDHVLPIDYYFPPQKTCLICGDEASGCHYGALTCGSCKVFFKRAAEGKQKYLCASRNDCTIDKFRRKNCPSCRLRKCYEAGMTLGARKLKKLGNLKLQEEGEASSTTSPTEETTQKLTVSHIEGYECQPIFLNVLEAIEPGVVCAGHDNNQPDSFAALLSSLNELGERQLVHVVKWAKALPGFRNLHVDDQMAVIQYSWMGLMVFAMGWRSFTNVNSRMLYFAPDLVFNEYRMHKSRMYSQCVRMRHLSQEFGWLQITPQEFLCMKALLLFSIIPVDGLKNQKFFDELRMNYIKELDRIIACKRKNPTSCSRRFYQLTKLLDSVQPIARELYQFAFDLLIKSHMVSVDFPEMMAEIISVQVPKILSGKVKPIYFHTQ

For another test, the target named is T2, H875Q-AR (Homo sapiens, UniProt P10275, H875Q).
T2 sequence (P10275 1-920 H875Q): T1 sequence (P10275 1-920 H875Y/T878A) with Y875Q, A878T

The target of a further test is T3, L882I-AR (Homo sapiens, UniProt P10275, L882I).
T3 sequence (P10275 1-920 L882I): T1 sequence (P10275 1-920 H875Y/T878A) with Y875H, A878T, L882I

Each structure is given as a SMILES string. Where a chain is given by its changes, count along the chain named. pEC50: −log10 of the molar value.

As for `C[C@]12CCC(=O)C=C1CC[C@@H]1[C@@H]2[C@@H](O)C[C@@]2(C)[C@H]1CC[C@]2(O)C(=O)CO` [hydrocortisone], the pEC50 is 6.98 on H875Y/T878A-AR, below 6.30 at H875Q-AR and below 6.30 at L882I-AR.

Source of the values: article PMC4729137, “Functional analysis of androgen receptor mutations that confer anti-androgen resistance identified in circulating cell-free DNA from prostate cancer patients” (Genome Biology, 2016).
